Assay results reported in article PMC5218480 (PLoS ONE, 2017).

Test system: MV-4-11 cells
Assay: Gene expression microarray analysis (Affymetrix PrimeView) and GSEA
Type: cell-based, human
Design: RFU PODN (11730768_x_at) / Fold change /veh PODN (11730768_x_at) / RFU LINC00158 (11744669_a_at) / Fold change /veh LINC00158 (11744669_a_at) / RFU DUSP10 (11751237_a_at) / Fold change /veh DUSP10 (11751237_a_at) / RFU ID3 (11757404_x_at) / Fold change /veh ID3 (11757404_x_at) / RFU PLEKHG5 (11737974_s_at) / Fold change /veh PLEKHG5 (11737974_s_at) / RFU LRRC4B (11730491_at) / Fold change /veh LRRC4B (11730491_at) / RFU GIMAP4 (11747438_a_at) / Fold change /veh GIMAP4 (11747438_a_at) / RFU KRT8 (11758183_x_at) / Fold change /veh KRT8 (11758183_x_at) / RFU CNN1 (11734310_a_at) / Fold change /veh CNN1 (11734310_a_at) / RFU VPS37D (11726825_at) / Fold change /veh VPS37D (11726825_at) / RFU C10orf10 (11716522_x_at) / Fold change /veh C10orf10 (11716522_x_at) / RFU KIR2DL2 /// KIR2DL4 /// KIR2DL5A /// KIR2DL5B /// KIR2DS1 /// KIR2DS2 /// KIR2DS3 /// KIR2DS4 /// KIR3DL3 /// KIR3DL3 /// KIR3DS1 (11738374_at) / Fold change /veh KIR2DL2 /// KIR2DL4 /// KIR2DL5A /// KIR2DL5B /// KIR2DS1 /// KIR2DS2 /// KIR2DS3 /// KIR2DS4 /// KIR3DL3 /// KIR3DL3 /// KIR3DS1 (11738374_at) / RFU C1QL1 (11718748_at) / Fold change /veh C1QL1 (11718748_at) / RFU TMPRSS4 (11747572_a_at) / Fold change /veh TMPRSS4 (11747572_a_at) / RFU HAMP (11756126_x_at) / Fold change /veh HAMP (11756126_x_at) / RFU RNFT2 (11725882_a_at) / Fold change /veh RNFT2 (11725882_a_at) / RFU NR4A2 (11747474_a_at) / Fold change /veh NR4A2 (11747474_a_at) / RFU ABCC12 (11746883_a_at) / Fold change /veh ABCC12 (11746883_a_at) / RFU TMEM136 (11760407_x_at) / Fold change /veh TMEM136 (11760407_x_at) / RFU CLDN22 /// WWC2 (11732394_at) / Fold change /veh CLDN22 /// WWC2 (11732394_at) / RFU HLA-DPB1 (11760878_x_at) / Fold change /veh HLA-DPB1 (11760878_x_at) / RFU SPINT1 (11716480_a_at) / Fold change /veh SPINT1 (11716480_a_at) / RFU GAP43 (11754022_s_at) / Fold change /veh GAP43 (11754022_s_at) / RFU A4GNT (11735810_at) / Fold change /veh A4GNT (11735810_at) / RFU PRB3 (11715151_x_at) / Fold change /veh PRB3 (11715151_x_at) / RFU TUBB4B (11761932_at) / Fold change /veh TUBB4B (11761932_at) / RFU CAPN14 (11732068_a_at) / Fold change /veh CAPN14 (11732068_a_at) / RFU TMCC2 (11721928_a_at) / Fold change /veh TMCC2 (11721928_a_at) / RFU IRGQ (11745062_a_at) / Fold change /veh IRGQ (11745062_a_at) / RFU FAM174B (11720279_a_at) / Fold change /veh FAM174B (11720279_a_at) / RFU TMPRSS4 (11748680_a_at) / Fold change /veh TMPRSS4 (11748680_a_at) / RFU FAM212B (11763350_a_at) / Fold change /veh FAM212B (11763350_a_at) / RFU PLEKHG5 (11743358_a_at) / Fold change /veh PLEKHG5 (11743358_a_at) / RFU ZSCAN30 (11745921_a_at) / Fold change /veh ZSCAN30 (11745921_a_at) / RFU CMKLR1 (11741424_a_at) / Fold change /veh CMKLR1 (11741424_a_at) / RFU LOC101060620 /// MAPK8IP1 (11723275_at) / Fold change /veh LOC101060620 /// MAPK8IP1 (11723275_at) / RFU SPTSSB (11747773_x_at) / Fold change /veh SPTSSB (11747773_x_at) / RFU PRSS12 (11739890_at) / Fold change /veh PRSS12 (11739890_at) / RFU BIN1 (11741810_x_at) / Fold change /veh BIN1 (11741810_x_at) / RFU WNT11 (11732464_a_at) / Fold change /veh WNT11 (11732464_a_at) / RFU C10orf10 (11716521_a_at) / Fold change /veh C10orf10 (11716521_a_at) / RFU C5orf56 (11738089_at) / Fold change /veh C5orf56 (11738089_at) / RFU CYB561 (11721691_x_at) / Fold change /veh CYB561 (11721691_x_at) / RFU ANKRD19P (11752326_a_at) / Fold change /veh ANKRD19P (11752326_a_at) / RFU OR2T12 /// OR2T33 /// OR2T8 (11738714_s_at) / Fold change /veh OR2T12 /// OR2T33 /// OR2T8 (11738714_s_at) / RFU VCAN (11748164_a_at) / Fold change /veh VCAN (11748164_a_at) / RFU JSRP1 (11732532_at) / Fold change /veh JSRP1 (11732532_at) / RFU KRTAP10-11 (11738290_x_at) / Fold change /veh KRTAP10-11 (11738290_x_at) / RFU MYO3A (11730013_a_at) / Fold change /veh MYO3A (11730013_a_at) / RFU EBF3 (11725865_a_at) / Fold change /veh EBF3 (11725865_a_at) / RFU CAMK2N1 (11719241_x_at) / Fold change /veh CAMK2N1 (11719241_x_at) / RFU C5orf56 (11738088_a_at) / Fold change /veh C5orf56 (11738088_a_at) / RFU OLFML3 (11715873_a_at) / Fold change /veh OLFML3 (11715873_a_at) / RFU LOC100653217 /// NTM (11731650_a_at) / Fold change /veh LOC100653217 /// NTM (11731650_a_at) / RFU MAPK11 (11762145_a_at) / Fold change /veh MAPK11 (11762145_a_at) / RFU FIZ1 (11724087_x_at) / Fold change /veh FIZ1 (11724087_x_at) / RFU OASL (11726364_x_at) / Fold change /veh OASL (11726364_x_at) / RFU SOX15 (11748057_x_at) / Fold change /veh SOX15 (11748057_x_at) / RFU CD79A (11719716_a_at) / Fold change /veh CD79A (11719716_a_at) / RFU HIST1H1D (11736915_at) / Fold change /veh HIST1H1D (11736915_at) / RFU CASKIN2 (11723855_a_at) / Fold change /veh CASKIN2 (11723855_a_at) / RFU LOC730098 (11760151_x_at) / Fold change /veh LOC730098 (11760151_x_at) / RFU OR4N2 (11742367_at) / Fold change /veh OR4N2 (11742367_at) / RFU PRRT2 (11749266_a_at) / Fold change /veh PRRT2 (11749266_a_at) / RFU SNX32 (11753110_a_at) / Fold change /veh SNX32 (11753110_a_at) / RFU CDHR5 (11726645_a_at) / Fold change /veh CDHR5 (11726645_a_at) / RFU RCAN1 (11760418_a_at) / Fold change /veh RCAN1 (11760418_a_at) / RFU FAM167A (11723789_a_at) / Fold change /veh FAM167A (11723789_a_at) / RFU FAM26E (11764081_at) / Fold change /veh FAM26E (11764081_at) / RFU ISYNA1 (11749810_s_at) / Fold change /veh ISYNA1 (11749810_s_at) / RFU ACY1 (11761880_at) / Fold change /veh ACY1 (11761880_at) / RFU 11764098_at / Fold change /veh 11764098_at / RFU SAMD14 (11745864_x_at) / Fold change /veh SAMD14 (11745864_x_at) / RFU NPB (11741838_a_at) / Fold change /veh NPB (11741838_a_at) / RFU TMPRSS6 (11731388_a_at) / Fold change /veh TMPRSS6 (11731388_a_at) / RFU KRTAP10-2 (11738614_at) / Fold change /veh KRTAP10-2 (11738614_at) / RFU ARHGAP8 /// PRR5-ARHGAP8 (11727945_x_at) / Fold change /veh ARHGAP8 /// PRR5-ARHGAP8 (11727945_x_at) / RFU KRTAP5-7 /// NADSYN1 (11734609_at) / Fold change /veh KRTAP5-7 /// NADSYN1 (11734609_at) / RFU RASL12 (11751679_a_at) / Fold change /veh RASL12 (11751679_a_at) / RFU CDKN2B (11736163_a_at) / Fold change /veh CDKN2B (11736163_a_at) / RFU PRF1 (11729649_at) / Fold change /veh PRF1 (11729649_at) / RFU, ZNF638 /// ZNF638-IT1 / Fold change vs veh, ZNF638 /// ZNF638-IT1 / RFU, PANK3 / Fold change vs veh, PANK3 / RFU, SH3YL1 / Fold change vs veh, SH3YL1 / RFU, ZEB2 / Fold change vs veh, ZEB2 / RFU, NRIP1 / Fold change vs veh, NRIP1 / RFU, PTTG1IP / Fold change vs veh, PTTG1IP / RFU, CAPN2 / Fold change vs veh, CAPN2 / RFU, MED14 / Fold change vs veh, MED14 / RFU, SNORA58 / Fold change vs veh, SNORA58 / RFU, C1orf63 / Fold change vs veh, C1orf63 / RFU, LRRFIP1 / Fold change vs veh, LRRFIP1 / RFU, NDUFAF7 / Fold change vs veh, NDUFAF7 / RFU, SLC12A2 / Fold change vs veh, SLC12A2 / RFU, IBTK / Fold change vs veh, IBTK / RFU, ESF1 / Fold change vs veh, ESF1 / Fold change vs veh, TMEM50B / RFU, TAOK1 / Fold change vs veh, TAOK1 / RFU, ACBD3 / Fold change vs veh, ACBD3 / RFU, TMA16 / Fold change vs veh, TMA16 / RFU, RWDD3 / Fold change vs veh, RWDD3 / RFU, BCAT1 / Fold change vs veh, BCAT1 / RFU, EDEM3 / Fold change vs veh, EDEM3 / RFU, TMEM33 / Fold change vs veh, TMEM33 / RFU, WDR75 / Fold change vs veh, WDR75 / RFU, AHCTF1 / Fold change vs veh, AHCTF1 / RFU, TFRC / Fold change vs veh, TFRC / RFU, ZDHHC17 / Fold change vs veh, ZDHHC17 / RFU, NOM1 / Fold change vs veh, NOM1 / RFU, ARL8B / Fold change vs veh, ARL8B / RFU, ZBTB11 / Fold change vs veh, ZBTB11 / RFU, TAMM41 / Fold change vs veh, TAMM41 / RFU, KIAA1704 /// LOC100996395 / Fold change vs veh, KIAA1704 /// LOC100996395 / RFU, ING1 / Fold change vs veh, ING1 / RFU, TRMT61B / Fold change vs veh, TRMT61B / RFU, FUBP3 / Fold change vs veh, FUBP3 / RFU, TP53 / Fold change vs veh, TP53 / RFU, TNKS2 / Fold change vs veh, TNKS2 / RFU, ZFP14 / Fold change vs veh, ZFP14 / RFU, ACTR2 / Fold change vs veh, ACTR2 / RFU, PPP3R1 / Fold change vs veh, PPP3R1 / RFU, PIK3R1 / Fold change vs veh, PIK3R1 / RFU, HNRNPA1 / Fold change vs veh, HNRNPA1 / RFU, RNF170 / Fold change vs veh, RNF170 / RFU, ZNF28 / Fold change vs veh, ZNF28 / RFU, RNGTT / Fold change vs veh, RNGTT / RFU, OGT / Fold change vs veh, OGT / RFU, BRD1 / Fold change vs veh, BRD1 / RFU, MARS / Fold change vs veh, MARS / RFU, ZNF655 / Fold change vs veh, ZNF655 / RFU, FAHD1 / Fold change vs veh, FAHD1 / RFU, BDP1 / Fold change vs veh, BDP1 / RFU, LRRCC1 / Fold change vs veh, LRRCC1 / RFU, ARID1A / Fold change vs veh, ARID1A / RFU, ZNF146 / Fold change vs veh, ZNF146 / RFU, ZNF330 / Fold change vs veh, ZNF330 / RFU, GPN3 / Fold change vs veh, GPN3 / RFU, C9orf123 / Fold change vs veh, C9orf123 / RFU, N4BP2L2 / Fold change vs veh, N4BP2L2 / RFU, ARFIP1 / Fold change vs veh, ARFIP1 / RFU, FAM179B / Fold change vs veh, FAM179B / RFU, BCL10 / Fold change vs veh, BCL10 / RFU, UHRF1BP1L / Fold change vs veh, UHRF1BP1L / RFU, BET1 / Fold change vs veh, BET1 / RFU, CNOT2 / Fold change vs veh, CNOT2 / RFU, ZNF268 / Fold change vs veh, ZNF268 / Fold change vs veh, ZNF507 / RFU, DGCR2 / Fold change vs veh, DGCR2 / RFU, WDSUB1 / Fold change vs veh, WDSUB1 / Fold change vs veh, HSP90B1 /// MIR3652 / RFU, ADSS / Fold change vs veh, ADSS / RFU, GK / Fold change vs veh, GK / RFU, ZNF148 / Fold change vs veh, ZNF148 / RFU, TAF9 / Fold change vs veh, TAF9 / RFU, SLC1A5 / Fold change vs veh, SLC1A5 / RFU, SLMO2 / Fold change vs veh, SLMO2 / RFU, ABCC4 / Fold change vs veh, ABCC4 / RFU, LOC101060439 /// RAP1B / Fold change vs veh, LOC101060439 /// RAP1B / RFU, RFX7 / Fold change vs veh, RFX7 / RFU, GTPBP10 / Fold change vs veh, GTPBP10 / RFU, CNEP1R1 / Fold change vs veh, CNEP1R1 / RFU, BIVM-ERCC5 /// ERCC5 / Fold change vs veh, BIVM-ERCC5 /// ERCC5 / RFU, ILF3 / Fold change vs veh, ILF3 / RFU 11762660_at / Fold change /veh 11762660_at / RFU VCAN (11757783_s_at) / Fold change /veh VCAN (11757783_s_at) / RFU DDX43 (11728927_at) / Fold change /veh DDX43 (11728927_at) / RFU KRT8 (11758188_x_at) / Fold change /veh KRT8 (11758188_x_at) / RFU NKD1 (11759106_at) / Fold change /veh NKD1 (11759106_at) / RFU SRD5A1 (11742802_a_at) / Fold change /veh SRD5A1 (11742802_a_at) / RFU TPSAB1 /// TPSB2 (11721975_s_at) / Fold change /veh TPSAB1 /// TPSB2 (11721975_s_at) / RFU GSTM3 (11746129_a_at) / Fold change /veh GSTM3 (11746129_a_at) / RFU IL23R (11737362_x_at) / Fold change /veh IL23R (11737362_x_at) / RFU TMEM51 (11727254_a_at) / Fold change /veh TMEM51 (11727254_a_at) / RFU PIWIL2 (11732686_x_at) / Fold change /veh PIWIL2 (11732686_x_at) / RFU ORM1 (11744905_x_at) / Fold change /veh ORM1 (11744905_x_at) / RFU CCDC152 (11743942_at) / Fold change /veh CCDC152 (11743942_at) / RFU ECM1 (11717891_a_at) / Fold change /veh ECM1 (11717891_a_at) / RFU IL23R (11748794_a_at) / Fold change /veh IL23R (11748794_a_at) / RFU TNFAIP8L3 (11732012_x_at) / Fold change /veh TNFAIP8L3 (11732012_x_at) / RFU MBOAT4 (11741988_at) / Fold change /veh MBOAT4 (11741988_at) / RFU 11764193_at / Fold change /veh 11764193_at / RFU TMEM53 (11763286_at) / Fold change /veh TMEM53 (11763286_at) / RFU MAGEB2 (11727129_at) / Fold change /veh MAGEB2 (11727129_at) / RFU TMEM200A (11744735_a_at) / Fold change /veh TMEM200A (11744735_a_at) / RFU CCDC152 (11751479_a_at) / Fold change /veh CCDC152 (11751479_a_at) / RFU FAM211A (11726209_a_at) / Fold change /veh FAM211A (11726209_a_at) / RFU RGS16 (11746705_a_at) / Fold change /veh RGS16 (11746705_a_at) / RFU VCAN (11755009_s_at) / Fold change /veh VCAN (11755009_s_at) / RFU RHOB (11743442_s_at) / Fold change /veh RHOB (11743442_s_at) / RFU RGS16 (11720943_a_at) / Fold change /veh RGS16 (11720943_a_at) / RFU RGS16 (11720944_at) / Fold change /veh RGS16 (11720944_at) / RFU, VPS4B / Fold change vs veh, VPS4B / RFU, CREB1 / Fold change vs veh, CREB1 / RFU, DNAJC13 / Fold change vs veh, DNAJC13 / RFU, GNAQ / Fold change vs veh, GNAQ / RFU, CDK5R1 / Fold change vs veh, CDK5R1 / RFU, ZRANB3 / Fold change vs veh, ZRANB3 / RFU, CUL4A / Fold change vs veh, CUL4A / RFU, CCNY / Fold change vs veh, CCNY / RFU, UFL1 / Fold change vs veh, UFL1 / RFU, COG3 / Fold change vs veh, COG3 / RFU, DIAPH2 / Fold change vs veh, DIAPH2 / RFU, SKA2 / Fold change vs veh, SKA2 / RFU, AFF3 / Fold change vs veh, AFF3 / RFU, LMF1 / Fold change vs veh, LMF1 / RFU, IPO11 / Fold change vs veh, IPO11 / RFU, DFFB / Fold change vs veh, DFFB / RFU, FOXP1 / Fold change vs veh, FOXP1 / RFU, CARD8 / Fold change vs veh, CARD8 / RFU, STRN3 / Fold change vs veh, STRN3 / RFU, ADK / Fold change vs veh, ADK / RFU, RASSF2 / Fold change vs veh, RASSF2 / RFU, WIPF1 / Fold change vs veh, WIPF1 / RFU, LARP1B / Fold change vs veh, LARP1B / RFU, RASA1 / Fold change vs veh, RASA1 / RFU, RB1 / Fold change vs veh, RB1 / RFU, PPFIA1 / Fold change vs veh, PPFIA1 / RFU, MAT2A / Fold change vs veh, MAT2A / RFU, CCT5 / Fold change vs veh, CCT5 / RFU, WDR92 / Fold change vs veh, WDR92 / RFU, CUX1 / Fold change vs veh, CUX1 / RFU, TTC7A / Fold change vs veh, TTC7A / RFU, TMEM135 / Fold change vs veh, TMEM135 / RFU, DEPTOR / Fold change vs veh, DEPTOR / RFU, CPM / Fold change vs veh, CPM / RFU, DNAJB6 / Fold change vs veh, DNAJB6 / RFU, CACNA2D3 / Fold change vs veh, CACNA2D3 / RFU, DTX4 / Fold change vs veh, DTX4 / RFU, TFCP2 / Fold change vs veh, TFCP2 / RFU, GMCL1 /// GMCL1P1 / Fold change vs veh, GMCL1 /// GMCL1P1 / RFU, AEBP2 / Fold change vs veh, AEBP2 / RFU, SNHG1 /// SNORD22 /// SNORD25 /// SNORD26 /// SNORD27 /// SNORD28 /// SNORD29 /// SNORD31 / Fold change vs veh, SNHG1 /// SNORD22 /// SNORD25 /// SNORD26 /// SNORD27 /// SNORD28 /// SNORD29 /// SNORD31 / Fold change (Aza/veh), C12orf56 (ProbeSet 11735607_a_at) / Fold change (ACY-1035/veh), C12orf56 (ProbeSet 11735607_a_at) / Fold change (Aza/veh), FGFR1OP (ProbeSet 11751329_s_at) / Fold change (ACY-1035/veh), FGFR1OP (ProbeSet 11751329_s_at) / Fold change (Aza/veh), VPS36 (ProbeSet 11739960_a_at) / Fold change (ACY-1035/veh), VPS36 (ProbeSet 11739960_a_at) / RFU SYPL1 (11715823_x_at) / Fold change /veh SYPL1 (11715823_x_at) / RFU IGFBP7 (11715501_s_at) / Fold change /veh IGFBP7 (11715501_s_at) / RFU REEP3 (11722064_at) / Fold change /veh REEP3 (11722064_at) / RFU IGLL1 (11728026_x_at) / Fold change /veh IGLL1 (11728026_x_at): dose or concentration left out as unconfirmed
Conditions: ProbeSet 11723944_a_at; LIST B

SMILES: Nc1ccc(-c2cccs2)cc1NC(=O)c1ccc2c(c1)cc(C1CC1)n2CCN1CCOCC1 [ACY-1035]
- RFU, PTTG1IP: 718.82 RFU
